# Test results as given in BindingDB's records for doi:10.1016/s0960-894x(99)00197-3 (The R. W. Johnson Pharmaceutical Research Institute, 1999).
# Experiment: Activation of human platelet aggregation (gel-filtered platelets) induced by alpha thrombin
row,SMILES,EC50
1,"N=C(N)NCCC[C@H](NC(=O)[C@H](CC1CCCCC1)NC(=O)c1nnc(N)[nH]1)C(=O)N[C@@H](Cc1ccccc1)C(N)=O [5-Amino-1H-[1,2,4]triazole-3-carboxylic acid {(S)-1-[(S)-1-((S)-1-carbamoyl-2-phenyl-ethylcarbamoyl)-4-guanidino-butylcarbamoyl]-2-cyclohexyl-ethyl}-amide]",0.76 µM
2,"N=C(N)NCCC[C@H](NC(=O)[C@H](Cc1ccccc1)NC(=O)c1nnc(N)[nH]1)C(=O)N[C@@H](Cc1ccccc1)C(N)=O [5-Amino-1H-[1,2,4]triazole-3-carboxylic acid {(S)-1-[(S)-1-((S)-1-carbamoyl-2-phenyl-ethylcarbamoyl)-4-guanidino-butylcarbamoyl]-2-phenyl-ethyl}-amide]",1 µM
3,"NCCCC[C@H](NC(=O)[C@H](CC1CCCCC1)NC(=O)c1nnc(N)[nH]1)C(=O)N[C@@H](Cc1ccccc1)C(N)=O [5-Amino-1H-[1,2,4]triazole-3-carboxylic acid {(S)-1-[(S)-5-amino-1-((S)-1-carbamoyl-2-phenyl-ethylcarbamoyl)-pentylcarbamoyl]-2-cyclohexyl-ethyl}-amide]",3.9 µM
4,"N=C(N)NCCC[C@H](NC(=O)[C@H](CC1CCCCC1)NC(=O)c1nnc(NC(=O)C=Cc2cccc(Cl)c2)[nH]1)C(=O)N[C@@H](Cc1ccccc1)C(N)=O [5-[(E)-3-(3-Chloro-phenyl)-acryloylamino]-1H-[1,2,4]triazole-3-carboxylic acid {(S)-1-[(S)-1-((S)-1-carbamoyl-2-phenyl-ethylcarbamoyl)-4-guanidino-butylcarbamoyl]-2-cyclohexyl-ethyl}-amide]",2.4 µM
5,"N=C(N)NCCC[C@H](NC(=O)[C@H](CC1CCCCC1)NC(=O)c1nnc(NC(=O)C=Cc2ccc(F)cc2)[nH]1)C(=O)N[C@@H](Cc1ccccc1)C(N)=O [5-[(E)-3-(4-Fluoro-phenyl)-acryloylamino]-1H-[1,2,4]triazole-3-carboxylic acid {(S)-1-[(S)-1-((S)-1-carbamoyl-2-phenyl-ethylcarbamoyl)-4-guanidino-butylcarbamoyl]-2-cyclohexyl-ethyl}-amide]",7.9 µM
6,"N=C(N)NCCC[C@H](NC(=O)[C@H](CC1CCCCC1)NC(=O)c1nnc(NC(=O)C=Cc2ccccc2)[nH]1)C(=O)N[C@@H](Cc1ccccc1)C(N)=O [5-[(E)-(3-Phenyl-acryloyl)amino]-1H-[1,2,4]triazole-3-carboxylic acid {(S)-1-[(S)-1-((S)-1-carbamoyl-2-phenyl-ethylcarbamoyl)-4-guanidino-butylcarbamoyl]-2-cyclohexyl-ethyl}-amide]",21 µM
